Values quoted from earlier work, collected in patent publication US20080241240A1, “COMBINED PHARMACEUTICAL FORMULATION WITH CONTROLLED-RELEASE COMPRISING DIHYDROPYRIDINE CALCIUM CHANNEL BLOCKERS AND HMG-COA REDUCTASE INHIBITORS” (HANALL Pharmaceutical Co., Ltd., priority 2006, published 2008).

Details: orally administered as single pill

For `CCOC(=O)C1=C(COCCN)NC(C)=C(C(=O)OC)C1c1ccccc1Cl` (stereo not shown) [Amlodipine, 3-ethyl-5-methyl-2-(2-aminoethoxymethyl)-4-(2-chlorophenyl)-1,4-dihydro-6-methyl-3,5-pyridinedicarboxylate], the “remaining, present in blood” value is given as 60%.
